Experimental data reported in ChEMBL document CHEMBL1201862, “PubChem BioAssay data set” (2004).
Activity calls are given as the source filed them.

Legend:
NS3 = NS3 (Hepatitis C virus, UniProt A3EZJ3); test: PubChem AID 2173; design: species or system Hepacivirus hominis
[1] = target: Luciferin 4-monooxygenase (Photinus pyralis, UniProt P08659); test: inhibition of purified Photinus pyralis luciferase – biochemical, luminescence, dose response (AID 1891)
[2] = Luminescence-based counterscreen assay for KLF5 inhibitors: dose response cell-based high throughput screening assay to identify cytotoxic compounds using the IEC-6 intestinal epithelial cell line. [Related pubchem assays: 1700 (Primary screen.), 1834 (Confirmation screen.), 1858 (Summary AID.), 1905 (Counterscreen.)]; assay type: functional
[3] = Luminescence Cell-Based Dose Confirmation HTS to Identify Inhibitors of Platelet Dense Granule Release. [Related pubchem assays: 1663 (Primary HTS), 1678 (Summary of Project)]; assay type: functional
[4] = target: T1, Heat shock factor protein 1 (Mus musculus, UniProt P38532); test: decrease of HSF1-responsive luciferase luminescence – cell-based, NIH3T3, dose retest, confirmation (AID 2382); assay type: functional;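 further: NIH3T3 fibroblasts with HSF1-driven luciferase reporter stressed by proteasome inhibitor MG132; luminescence from HSF1-driven luciferase expression after 8 hours of MG132 stress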
T1 sequence (P38532 whole entry): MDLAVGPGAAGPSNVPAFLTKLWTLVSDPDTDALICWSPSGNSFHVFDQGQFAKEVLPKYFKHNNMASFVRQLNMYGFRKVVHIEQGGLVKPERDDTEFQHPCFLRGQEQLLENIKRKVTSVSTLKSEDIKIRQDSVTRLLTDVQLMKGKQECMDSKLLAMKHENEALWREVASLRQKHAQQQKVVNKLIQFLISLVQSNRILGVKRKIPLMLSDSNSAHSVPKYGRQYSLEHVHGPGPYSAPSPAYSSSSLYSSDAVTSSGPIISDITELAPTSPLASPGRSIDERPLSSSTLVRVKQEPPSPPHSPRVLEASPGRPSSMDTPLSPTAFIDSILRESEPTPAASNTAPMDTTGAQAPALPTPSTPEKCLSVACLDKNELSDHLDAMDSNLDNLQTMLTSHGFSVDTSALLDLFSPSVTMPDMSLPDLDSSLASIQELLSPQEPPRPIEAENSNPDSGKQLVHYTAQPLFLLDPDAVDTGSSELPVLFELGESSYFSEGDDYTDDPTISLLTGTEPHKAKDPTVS

[5] = HEK-293T viability loss after treatment – luminescence, T-cell screen hits, cytotoxicity control for TCR NF-kB inhibitor project, dose response (AID 489026); assay type: functional, cell-based;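 further: cells exposed to compound about 14 hours before the viability readout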

Sequence of NS3 (A3EZJ3 whole entry): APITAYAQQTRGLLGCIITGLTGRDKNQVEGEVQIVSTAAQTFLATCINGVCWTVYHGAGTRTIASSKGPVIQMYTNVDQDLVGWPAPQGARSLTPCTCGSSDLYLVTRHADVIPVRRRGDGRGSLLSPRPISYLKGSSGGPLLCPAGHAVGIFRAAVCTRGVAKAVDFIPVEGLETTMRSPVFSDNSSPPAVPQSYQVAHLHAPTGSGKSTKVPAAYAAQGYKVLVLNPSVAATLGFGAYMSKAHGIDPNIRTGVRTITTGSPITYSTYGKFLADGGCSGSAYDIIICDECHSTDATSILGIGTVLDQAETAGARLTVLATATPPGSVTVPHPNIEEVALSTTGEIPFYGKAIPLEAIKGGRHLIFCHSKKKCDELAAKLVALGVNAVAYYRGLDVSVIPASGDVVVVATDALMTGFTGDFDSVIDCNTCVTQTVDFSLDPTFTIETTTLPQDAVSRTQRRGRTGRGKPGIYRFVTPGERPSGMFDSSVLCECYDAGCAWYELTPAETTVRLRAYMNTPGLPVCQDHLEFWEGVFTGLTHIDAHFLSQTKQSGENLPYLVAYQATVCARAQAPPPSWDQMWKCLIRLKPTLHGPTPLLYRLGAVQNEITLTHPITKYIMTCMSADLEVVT
Sequence of Luciferin 4-monooxygenase (P08659 whole entry): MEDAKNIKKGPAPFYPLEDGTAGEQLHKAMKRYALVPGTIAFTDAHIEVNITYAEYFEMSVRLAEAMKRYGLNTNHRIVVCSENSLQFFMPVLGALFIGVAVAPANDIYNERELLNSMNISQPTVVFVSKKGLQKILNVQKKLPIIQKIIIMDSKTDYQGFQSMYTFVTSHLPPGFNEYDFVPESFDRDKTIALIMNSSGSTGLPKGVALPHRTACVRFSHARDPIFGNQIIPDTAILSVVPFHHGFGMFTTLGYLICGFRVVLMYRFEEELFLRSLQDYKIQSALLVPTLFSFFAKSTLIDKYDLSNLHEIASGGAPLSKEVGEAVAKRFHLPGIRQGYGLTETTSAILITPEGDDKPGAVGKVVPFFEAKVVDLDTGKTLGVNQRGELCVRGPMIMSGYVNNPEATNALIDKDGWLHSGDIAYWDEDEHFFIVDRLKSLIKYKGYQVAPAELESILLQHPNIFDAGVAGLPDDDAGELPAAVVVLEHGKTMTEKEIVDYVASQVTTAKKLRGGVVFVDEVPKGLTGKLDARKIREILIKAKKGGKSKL

NS(=O)(=O)c1ccc2nc(NC(=O)c3ccc4ncsc4c3)sc2c1
IC50 (NS3): 32 µM (not active)

O=C(Nc1ccc(N2CCCCC2)cc1)c1ccccn1
EC50 [1]: 1.06 µM (active) | IC50 [2]: 13.3 µM (not active) | EC50 [3]: 1.49 µM (active) | EC50 [4]: < 0.16 µM (active) | IC50 [5]: > 80 µM (inactive)
